Data taken from patent US20060035295A1, “Method for determination of thymidine kinase 1 activity and the use thereof” (priority 2002, published 2006).
“Also recorded” adds a separate entry of the source.

Columns and labels:
[1] = test system: phosphatases; assay: TK ELISA with UMP in substrate buffer to inhibit phosphatase activity; assay type: biochemical, human; details: 1 mM UMP; two of four tested sera
Protocol: A potential problem for the analysis of a kinase activity in patient sera is the presence of phosphatase activity in the same sera to drive the reverse reaction (dephosphorylaUon). One way to inhibit the phosphatase is to include UMP in the substrate buffer to protect AZTMP from being dephosphorylated to AZT.
Substrate buffers containing 172 mM HEPES, 62 mM NaOH, 62 mM MgCl2*6H2O, 34 mM KCl, 142 mM Mannitol, 7,8 mM ATP, 12 mM DTE, and 25 μg/ml AZT were prepared—with variable concentrations UMP, i.e. 0, 0.1, 1 or 5 mM UMP.
A TK1 standard preparation 80 U/L (in heat inactivated fetal calf serum) was diluted in 9 g/L deionized-water, also used as zero standard level, to give further standard levels of 40, 20, 10, 5 and 2,5 U/L, respectively. Four human sera were also assayed. Two sera were from healthy blood donors and two sera from patients monitored with TK REA.
Next the TK reactions were performed by adding 50 μl of substrate buffer together with 50 μL of TK1 standard/or patient serum sample in non-coated microtitre wells.
The plate was incubated for 60 minutes at 37° C. […]
For the detection 50 μl were transferred to a plate which plate was coated with 1 μg/well rabbit anti chicken IgY (Sigma, MO, USA). […] The TMB reaction was stopped with 100 μl acid TMB stop and the absorbance read at 450 nm.

[2] = blood serum or cell extracts; cited from earlier work
[3] = target: T1, TK1 (Homo sapiens, UniProt P04183); details: almost the same relative efficiency as Thymidine; cited from earlier work
T1 sequence (P04183 1-234): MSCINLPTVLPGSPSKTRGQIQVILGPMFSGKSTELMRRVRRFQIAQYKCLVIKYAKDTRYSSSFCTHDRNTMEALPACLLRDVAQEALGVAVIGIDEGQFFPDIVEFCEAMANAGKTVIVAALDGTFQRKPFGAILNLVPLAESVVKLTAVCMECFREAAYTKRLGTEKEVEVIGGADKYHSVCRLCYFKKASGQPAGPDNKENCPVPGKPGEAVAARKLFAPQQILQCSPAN

[4] = test system: serum TK; assay: Serum TK measurement with tritium labelled AZT; assay type: biochemical, human; details: 16 clinical patient serum samples, 4 h at 37° C.
Protocol: In order to determine if serum TK can use AZT as substrate, an experiment was performed with 16 clinical patient serum samples (20 μl) mixed with 2 μL ^3H-AZT (Ci/mmol Moraveck Inc, USA) and 20 μL reaction mixture containing 10 mM Tris-HCl (pH 7.6), 5 mM ATP, 5 mM MgCl2, 3.5 mM NaF, 2 mM DTT. The assay was performed 4 h at 37° C. and the amount of AZTMP formed was determined by DE 51 ion exchange paper method as described (9). Previous experiments had established that this amount of serum gave a linear reaction during the time period tested.

[5] = target: T2, TK2 (Homo sapiens, UniProt O00142); details: cited from earlier work
T2 sequence (O00142 34-265): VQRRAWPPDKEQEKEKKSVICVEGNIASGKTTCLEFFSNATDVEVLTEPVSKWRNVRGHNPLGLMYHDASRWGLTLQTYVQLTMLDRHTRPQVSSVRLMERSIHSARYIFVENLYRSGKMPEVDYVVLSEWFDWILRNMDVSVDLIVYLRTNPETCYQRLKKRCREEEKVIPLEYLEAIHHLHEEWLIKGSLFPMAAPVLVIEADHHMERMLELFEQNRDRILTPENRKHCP

[6] = target: T3, thymidine phosphatase (Homo sapiens, UniProt P19971); details: in blood serum or in cell extracts; cited from earlier work
T3 sequence (P19971 11-482): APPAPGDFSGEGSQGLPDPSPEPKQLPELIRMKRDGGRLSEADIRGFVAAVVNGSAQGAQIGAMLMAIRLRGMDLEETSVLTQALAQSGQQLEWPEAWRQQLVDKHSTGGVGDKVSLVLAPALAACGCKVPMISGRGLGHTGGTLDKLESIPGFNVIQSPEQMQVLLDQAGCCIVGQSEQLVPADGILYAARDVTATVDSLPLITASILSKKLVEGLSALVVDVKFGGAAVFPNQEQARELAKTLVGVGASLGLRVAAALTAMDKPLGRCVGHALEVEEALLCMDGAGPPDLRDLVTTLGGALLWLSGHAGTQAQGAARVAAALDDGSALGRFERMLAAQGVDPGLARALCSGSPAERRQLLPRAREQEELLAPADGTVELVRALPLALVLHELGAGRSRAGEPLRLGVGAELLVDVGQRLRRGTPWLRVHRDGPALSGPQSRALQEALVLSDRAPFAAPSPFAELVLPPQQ

[7] = test system: chicken anti-AZTMP antibodies; assay: Competitive assay for anti-AZTMP antibody specificity (AZXMP hapten coated plates); assay type: binding; details: increasing amounts of competitor added to anti-AZTMP antibody solution; FIG. 2
Protocol: FIG. 2 Anti-AZTMP antibody specificity. Dose response curve for the competitive assay, according to example 1, between free AZTMP (left curve, denoted AZTMP) or AZT (right curve, denoted AZT) and Immobilised hapten, AZXMP (see FIG. 1) illustrating the specificity of chicken anti-AZTMP antibodies. Y-axis: original absorbance values (B) are normalised against values obtained in the absence of competitor (B0) to obtain (B/B0).
Antibody specificity and titre were evaluated using the competitive assay format described in example 4. To evaluate non-specific binding the antibody was substituted with diluent. Antibody specificity and titre was also evaluated using an assay whereby AZXMP hapten was coated to plates. AZXMP was conjugated to BSA using GA as linker and subsequently coated to the microtiter plates. In this assay, 100 μl of serially diluted antibody solutions were first incubated with AZXMP coated wells for 1 h at RT.
Wells of microtiter plates were washed three times with PBST (PBS plus 0,05% Tween 20). 100 μL of secondary antibody (diluted Horse Radish Peroxidase (HRP)-labelled anti-Goat IgG solution or anti-IgY antibody) was added and incubated for 30 min at room temperature. After 3 times washing with 250 μl PBST, bound antibody complexes were detected using TMB as substrate. The induced colour reaction was stopped after 5 min using 1M H2SO4 and detected at 450 nm. […]

| SMILES | effect on TK values of tested sera [1] | metabolic stability [2] | substrate quality for TK1 [3] | use as substrate by serum TK [4] | phosphorylation by TK2 [5] | substrate for thymidine phosphatase [6] | competition with immobilised AZXMP for antibody binding [7] |
| --- | --- | --- | --- | --- | --- | --- | --- |
| O=c1ccn([C@@H]2O[C@H](COP(=O)(O)O)[C@@H](O)[C@H]2O)c(=O)[nH]1 [UMP, Uridine monophosphate] | significantly higher TK values | – | – | – | – | – | – |
| Cc1cn([C@H]2C[C@H](N=[N+]=[N-])[C@@H](COP(=O)(O)O)O2)c(=O)[nH]c1=O [AZTMP, AZT-5′-monophosphate] | – | stable metabolites | – | – | – | – | – |
| Cc1cn([C@H]2C[C@H](N=[N+]=[N-])[C@@H](CO)O2)c(=O)[nH]c1=O [AZT, 3′-azido-3′-deoxythymidine] | – | stable metabolites | good substrate for TK1 | can efficiently use AZT as substrate; also recorded: selective, efficient and stable substrates | low capacity to phosphorylate AZT | does not use AZT as a substrate | not able to compete out AZXMP |
